Ki data for 11 molecules are collected here from ChEMBL document CHEMBL1142843, “Synthesis and evaluation of a series of tropane analogues as novel vesicular monoamine transporter-2 ligands” (Bioorg Med Chem Lett, 2005).

Test [1] deals with T1, Synaptic vesicular amine transporter (Rattus norvegicus, UniProt Q01827). The test is described as follows: Inhibition constant against [3H]dihydrotetrabenazine binding to vesicular monoamine transporter-2 of rat synaptic vesicle membranes.
In test [2] the target is Neuronal acetylcholine receptor alpha4beta2 (Rattus norvegicus). As to the kind of experiment: Inhibition constant against [3H]nicotine binding to alpha4beta2 nicotinic acetylcholine receptor of rat brain membranes.
The target in test [3] is Neuronal acetylcholine receptor alpha7 (Rattus norvegicus). As to the kind of experiment: Inhibition constant against [3H]methyllycaconitine binding to alpha7 nicotinic acetylcholine receptor of rat brain membranes.
Test [4] addresses T1, Synaptic vesicular amine transporter. As to the kind of experiment: Inhibition constant against [3H]nicotine binding to vesicular monoamine transporter-2 of rat brain membranes.
Test [5] has the same target. As to the kind of experiment: Inhibition constant against [3H]methyllycaconitine binding to vesicular monoamine transporter-2 of rat brain membranes.

T1 sequence (Q01827 whole entry): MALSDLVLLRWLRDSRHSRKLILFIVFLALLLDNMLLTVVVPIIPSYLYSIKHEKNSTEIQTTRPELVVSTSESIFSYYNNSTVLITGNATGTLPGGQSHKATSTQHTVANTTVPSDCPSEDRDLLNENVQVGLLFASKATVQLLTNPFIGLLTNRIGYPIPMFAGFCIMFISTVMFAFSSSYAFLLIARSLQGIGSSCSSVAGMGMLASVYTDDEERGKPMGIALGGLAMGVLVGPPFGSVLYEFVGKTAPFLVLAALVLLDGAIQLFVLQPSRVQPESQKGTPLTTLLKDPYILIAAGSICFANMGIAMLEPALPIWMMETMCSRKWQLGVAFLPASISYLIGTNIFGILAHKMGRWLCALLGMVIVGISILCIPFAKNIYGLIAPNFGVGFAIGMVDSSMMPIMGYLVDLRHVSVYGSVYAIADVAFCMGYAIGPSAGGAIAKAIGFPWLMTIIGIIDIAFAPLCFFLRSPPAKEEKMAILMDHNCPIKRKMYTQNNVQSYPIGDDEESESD

The term Ki denotes the equilibrium dissociation constant of an inhibitor or competing ligand from its target. Lower therefore signals higher affinity. Take `CN1C2CC=C(Cc3ccccc3)C1CC2` (stereo not drawn): the results for the inhibitory constant (Ki) in test [1], in test [2] and in test [3] were more than 100 µM, 1.84 µM and 15.2 µM, respectively.

Regarding `CN1C2CCC1[C@@H](Cc1ccccc1)C[C@H]2Cc1ccccc1`, the inhibition constant (Ki) in test [1], in test [2] and in test [3] was more than 100 µM throughout.

With `CN1C2CCC1[C@@H](CCCc1ccccc1)C[C@H]2CCCc1ccccc1`, the Ki in test [1] is 3.95 µM; in test [2], more than 100 µM; in test [3] it was more than 100 µM.

Regarding `COc1ccc(C[C@@H]2C[C@H](Cc3ccc(OC)cc3)C3CCC2N3C)cc1`, the values for the Ki in test [1], in test [2] and in test [3] were 3.88 µM, more than 100 µM and more than 100 µM, respectively.

With `CN1C2CCC1[C@@H](Cc1ccc(F)cc1)C=C2Cc1ccc(F)cc1` (stereo partly drawn), the Ki is 1.38 µM in test [1], more than 100 µM in test [2] and more than 100 µM in test [3].

Take `COc1ccc(CC2=C[C@H](Cc3ccc(OC)cc3)C3CCC2N3C)cc1` (stereo partly drawn): the Ki in test [1] was 4.8 µM; in test [2], more than 100 µM; in test [3], more than 100 µM.

On to `CN1C2CCC1[C@H](Cc1ccccc1)CC2` (stereo partly drawn), for which the inhibition constant (Ki) was more than 100 µM in test [1], more than 6.57 µM in test [2] and 14 µM in test [3].

Turning to `CN1C2CCC1[C@@H](Cc1ccc(F)cc1)C[C@H]2Cc1ccc(F)cc1`, the inhibition constant Ki in test [1], in test [2] and in test [3] was more than 100 µM in each case.

On to `CN1C2CCC1[C@@H](Cc1ccccc1)C(O)[C@H]2Cc1ccccc1` (stereo in doubt; 7a), for which the Ki in test [1], in test [2] and in test [3] was more than 100 µM throughout.

Take `CN1C2CCC1[C@@H](Cc1ccccc1)C(O)[C@H]2Cc1ccccc1` (stereo in doubt; 7b): the Ki in test [4], in test [1] and in test [5] was more than 100 µM in each case.

In the case of `CN1C2CCC1[C@@H](Cc1ccccc1)C(=O)[C@H]2Cc1ccccc1`, the Ki in test [1], in test [2] and in test [3] was more than 100 µM each time.
